Test results as given in patent publication US20120115724A1, “METHOD OF CONTROLLING UNDESIRED VEGETATION” (SYNGENTA CROP PROTECTION LLC, priority 2009, published 2012).

What was measured:
Format in all cases: in vivo
[1] = tested on: EPHHL Euphorbia heterophylla; assay: Post-emergence crop and weed test (Example 15); details: 360 h, after 15 days, read-out: Percentage damage EPHHL
Experimental: (§1) Seeds of crop and representative weed species were sown in standard soil in pots. After cultivation for 14 days under controlled conditions in a glasshouse (at 22/16° C., day/night; 16 hours light; 65% humidity), the plants were sprayed. The spray solution was prepared by dissolving the technical active ingredient in acetone containing 10.56 wt % Emulsogen EL, 42.22 wt % N-methylpyrrolidone and 2.22 wt % DPG-monoethyl ether to give a 5% stock solution. This was then diluted with water containing 0.2% (v/v) of the adjuvant X-77 to give the desired treatment concentration.
(§2) The test plants were then grown on under controlled conditions in a glasshouse (at 22/16° C., day/night; 16 hours light; 65% humidity) and watered twice daily. After 15 days the test was evaluated (100 =total damage to plant; 0 =no damage to plant).

KCHSC Kochia scoparia = assay: Post-emergence crop and weed test (Example 15); details: Bassia scoparia, 360 h, after 15 days, read-out: Percentage damage KCHSC
Experimental: as §1, §2

GALAP Galium aparine = assay: Post-emergence crop and weed test (Example 15); details: 360 h, after 15 days, read-out: Percentage damage GALAP
Experimental: as §1, §2

GLXMA Soybean = assay: Post-emergence crop and weed test (Example 15); details: Glycine max, 360 h, after 15 days, read-out: Percentage damage GLXMA
Experimental: as §1, §2

VERPE Veronica persica = assay: Post-emergence crop and weed test (Example 15); details: 360 h, after 15 days, read-out: Percentage damage VERPE
Experimental: as §1, §2

[2] = tested on: AMARE Amaranthus retroflexus; assay: Post-emergence crop and weed test (Example 15); details: 360 h, after 15 days, read-out: Percentage damage AMARE
Experimental: as §1, §2

IPOHE Ipomoea hederacea = assay: Post-emergence crop and weed test (Example 15); details: 360 h, after 15 days, read-out: Percentage damage IPOHE
Experimental: as §1, §2

[3] = tested on: ABUTH Abutilon theophrasti; assay: Post-emergence crop and weed test (Example 15); details: 360 h, after 15 days, read-out: Percentage damage ABUTH
Experimental: as §1, §2

SINAR Sinapis arvensis = assay: Post-emergence crop and weed test (Example 15); details: Mutarda arvensis, 360 h, after 15 days, read-out: Percentage damage SINAR
Experimental: as §1, §2

[4] = tested on: POLCO Polygonum convolvulus; assay: Post-emergence crop and weed test (Example 15); details: Fallopia convolvulus, 360 h, after 15 days, read-out: Percentage damage POLCO
Experimental: as §1, §2

[5] = tested on: XANST Xanthium strumarium; assay: Post-emergence crop and weed test (Example 15); details: 360 h, after 15 days, read-out: Percentage damage XANST
Experimental: as §1, §2

CHEAL Chenopodium album = assay: Post-emergence crop and weed test (Example 15); details: 360 h, after 15 days, read-out: Percentage damage CHEAL
Experimental: as §1, §2

SIDSP Sida spinosa = assay: Post-emergence crop and weed test (Example 15); details: 360 h, after 15 days, read-out: Percentage damage SIDSP
Experimental: as §1, §2

Setaria faberi (SETFA) [6] = assay: Pre-emergence biological efficacy (Example 13); details: Setaria faberi, 312 h; pre-emergence, 1,000 g/ha, after 13 days; read-out: Percentage damage SETFA
Experimental: (§3) Seeds of Alopecurus myosuroides (ALOMY), Setaria faberi (SETFA), Echinochloa crus-galli (ECHCG), Solanum nigrum (SOLNI), Amaranthus retroflexus (AMARE) and Ipomea hederaceae (IPOHE) were sown in standard soil in pots. After cultivation for one day under controlled conditions in a glasshouse (at 24/16° C., day/night; 14 hours light; 65% humidity), the plants were sprayed with an aqueous spray solution derived from the formulation of the technical active ingredient in acetone/water (50:50) solution containing 0.5% Tween 20 (polyoxyethylene sorbitan monolaurate, CAS RN 9005-64-5) to give a final dose of 250 or 1000g/ha of test compound. The test plants were then grown under controlled conditions in the glasshouse (at 24/16° C., day/night; 14 hours light; 65% humidity) and watered twice daily. After 13 days the test was evaluated (100 =total damage to plant; 0 =no damage to plant).

[7] = tested on: Echinochloa crus-galli (ECHCG); assay: Pre-emergence biological efficacy (Example 13); details: Echinochloa crus-galli, 312 h; pre-emergence, 1,000 g/ha, after 13 days; read-out: Percentage damage ECHCG
Experimental: as §3

[8] = tested on: Amaranthus retroflexus (AMARE); assay: Pre-emergence biological efficacy (Example 13); details: Amaranthus retroflexus, 312 h; pre-emergence, 1,000 g/ha, after 13 days; read-out: Percentage damage AMARE
Experimental: as §3

[9] = tested on: Ipomea hederaceae (IPOHE); assay: Pre-emergence biological efficacy (Example 13); details: Ipomoea hederacea, 312 h; pre-emergence, 1,000 g/ha, after 13 days; read-out: Percentage damage IPOHE
Experimental: as §3

[10] = tested on: Alopecurus myosuroides (ALOMY); assay: Pre-emergence biological efficacy (Example 13); details: Alopecurus myosuroides, 312 h; pre-emergence, 1,000 g/ha, after 13 days; read-out: Percentage damage ALOMY
Experimental: as §3

Solanum nigrum (SOLNI) [11] = assay: Pre-emergence biological efficacy (Example 13); details: Solanum nigrum, 312 h; pre-emergence, 1,000 g/ha, after 13 days; read-out: Percentage damage SOLNI
Experimental: as §3

Setaria faberi (SETFA) [12] = assay: Post-emergence biological efficacy (Example 14); details: Setaria faberi, 312 h; post-emergence, 1,000 g/ha, after 13 days; read-out: Percentage damage SETFA
Experimental: as §3, with “for 8 days” for “for one day”, “or 1000 g/ha” for “or 1000g/ha”, “grown on” for “grown”, “in a” for “in the”, “evaluated (100=total” for “evaluated (100 =total”, “plant; 0=no” for “plant; 0 =no”

[13] = tested on: Echinochloa crus-galli (ECHCG); assay: Post-emergence biological efficacy (Example 14); details: Echinochloa crus-galli, 312 h; post-emergence, 1,000 g/ha, after 13 days; read-out: Percentage damage ECHCG
Experimental: as §3, with “for 8 days” for “for one day”, “or 1000 g/ha” for “or 1000g/ha”, “grown on” for “grown”, “in a” for “in the”, “evaluated (100=total” for “evaluated (100 =total”, “plant; 0=no” for “plant; 0 =no”

[14] = tested on: Amaranthus retroflexus (AMARE); assay: Post-emergence biological efficacy (Example 14); details: Amaranthus retroflexus, 312 h; post-emergence, 1,000 g/ha, after 13 days; read-out: Percentage damage AMARE
Experimental: as §3, with “for 8 days” for “for one day”, “or 1000 g/ha” for “or 1000g/ha”, “grown on” for “grown”, “in a” for “in the”, “evaluated (100=total” for “evaluated (100 =total”, “plant; 0=no” for “plant; 0 =no”

[15] = tested on: Ipomea hederaceae (IPOHE); assay: Post-emergence biological efficacy (Example 14); details: Ipomoea hederacea, 312 h; post-emergence, 1,000 g/ha, after 13 days; read-out: Percentage damage IPOHE
Experimental: as §3, with “for 8 days” for “for one day”, “or 1000 g/ha” for “or 1000g/ha”, “grown on” for “grown”, “in a” for “in the”, “evaluated (100=total” for “evaluated (100 =total”, “plant; 0=no” for “plant; 0 =no”

[16] = tested on: Alopecurus myosuroides (ALOMY); assay: Post-emergence biological efficacy (Example 14); details: Alopecurus myosuroides, 312 h; post-emergence, 1,000 g/ha, after 13 days; read-out: Percentage damage ALOMY
Experimental: as §3, with “for 8 days” for “for one day”, “or 1000 g/ha” for “or 1000g/ha”, “grown on” for “grown”, “in a” for “in the”, “evaluated (100=total” for “evaluated (100 =total”, “plant; 0=no” for “plant; 0 =no”

Solanum nigrum (SOLNI) [17] = assay: Post-emergence biological efficacy (Example 14); details: Solanum nigrum, 312 h; post-emergence, 1,000 g/ha, after 13 days; read-out: Percentage damage SOLNI
Experimental: as §3, with “for 8 days” for “for one day”, “or 1000 g/ha” for “or 1000g/ha”, “grown on” for “grown”, “in a” for “in the”, “evaluated (100=total” for “evaluated (100 =total”, “plant; 0=no” for “plant; 0 =no”

COC(=O)c1nc(-c2ccc(Cl)c(N(C)C)c2F)nc(N)c1Cl [Ref. Ex. A, 4-Amino-5-chloro-2-(4-chloro-3-dimethylamino-2-fluorophenyl)-6-methoxycarbonyl-pyrimidine, reference compound]
pest or weed control at 30 g/ha ([1]; 30 g/ha): 80%
pest or weed control at 30 g/ha (KCHSC Kochia scoparia; 30 g/ha): 80%
pest or weed control at 30 g/ha (GALAP Galium aparine; 30 g/ha): 30%
plant injury at 30 g/ha (GLXMA Soybean; 30 g/ha): 50%
pest or weed control at 30 g/ha (VERPE Veronica persica; 30 g/ha): 70%
pest or weed control at 30 g/ha ([2]; 30 g/ha): 100%
pest or weed control at 30 g/ha (IPOHE Ipomoea hederacea; 30 g/ha): 70%
pest or weed control at 30 g/ha ([3]; 30 g/ha): 90%
pest or weed control at 30 g/ha (SINAR Sinapis arvensis; 30 g/ha): 70%
pest or weed control at 30 g/ha ([4]; 30 g/ha): 90%
pest or weed control at 30 g/ha ([5]; 30 g/ha): 90%
pest or weed control at 30 g/ha (CHEAL Chenopodium album; 30 g/ha): 80%
pest or weed control at 30 g/ha (SIDSP Sida spinosa; 30 g/ha): 80%

C/C=C/c1c(N)nc(C2CC2)nc1C(=O)OC [Ref. Ex. D, (E)-4-Amino-2-cyclopropyl-6-methoxycarbonyl-5-(prop-1-enyl)-pyrimidine, reference compound]
pest or weed control at 125 g/ha [1]: 80%
pest or weed control at 125 g/ha (KCHSC Kochia scoparia): 10%
pest or weed control at 125 g/ha (GALAP Galium aparine): 80%
plant injury at 125 g/ha (GLXMA Soybean): 80%
pest or weed control at 125 g/ha (VERPE Veronica persica): 10%
pest or weed control at 125 g/ha [2]: 60%
pest or weed control at 125 g/ha (IPOHE Ipomoea hederacea): 70%
pest or weed control at 125 g/ha [3]: 50%
pest or weed control at 125 g/ha (SINAR Sinapis arvensis): 80%
pest or weed control at 125 g/ha [4]: 20%
pest or weed control at 125 g/ha [5]: 60%
pest or weed control at 125 g/ha (CHEAL Chenopodium album): 60%
pest or weed control at 125 g/ha (SIDSP Sida spinosa): 60%

C=Cc1c(NCc2ccco2)nc(C2CC2)nc1C(=O)OC [Ref. Ex. F, 2-Cyclopropyl-5-ethenyl-4-(furan-2-ylmethylamino)-6-methoxycarbonyl-pyrimidine, reference compound]
pest or weed control at 125 g/ha [1]: 80%
pest or weed control at 125 g/ha (KCHSC Kochia scoparia): 30%
pest or weed control at 125 g/ha (GALAP Galium aparine): 80%
plant injury at 125 g/ha (GLXMA Soybean): 80%
pest or weed control at 125 g/ha (VERPE Veronica persica): 0%
pest or weed control at 125 g/ha [2]: 40%
pest or weed control at 125 g/ha (IPOHE Ipomoea hederacea): 70%
pest or weed control at 125 g/ha [3]: 60%
pest or weed control at 125 g/ha (SINAR Sinapis arvensis): 80%
pest or weed control at 125 g/ha [4]: 60%
pest or weed control at 125 g/ha [5]: 60%
pest or weed control at 125 g/ha (CHEAL Chenopodium album): 80%
pest or weed control at 125 g/ha (SIDSP Sida spinosa): 60%

C=Cc1c(N)nc(-c2ccc(Cl)nc2)nc1C(=O)OC [Compound 8, 4-amino-2-(6-chloropyridin-3-yl)-5-ethenyl-6-methoxycarbonyl-pyrimidine]
pest or weed control at 1000 g/ha (Setaria faberi (SETFA) [6]): 10%
pest or weed control at 1000 g/ha [7]: 0%
pest or weed control at 1000 g/ha [8]: 100%
pest or weed control at 1000 g/ha [9]: 40%
pest or weed control at 1000 g/ha [10]: 10%
pest or weed control at 1000 g/ha (Solanum nigrum (SOLNI) [11]): 40%
pest or weed control at 1000 g/ha (Setaria faberi (SETFA) [12]): 0%
pest or weed control at 1000 g/ha [13]: 0%
pest or weed control at 1000 g/ha [14]: 100%
pest or weed control at 1000 g/ha [15]: 50%
pest or weed control at 1000 g/ha [16]: 0%
pest or weed control at 1000 g/ha (Solanum nigrum (SOLNI) [17]): 90%
pest or weed control at 250 g/ha ([1]; 250 g/ha): 40%
pest or weed control at 250 g/ha (KCHSC Kochia scoparia; 250 g/ha): 60%
plant injury at 250 g/ha (GLXMA Soybean; 250 g/ha): 10%
pest or weed control at 250 g/ha (VERPE Veronica persica; 250 g/ha): 80%
pest or weed control at 250 g/ha ([2]; 250 g/ha): 100%
pest or weed control at 250 g/ha (IPOHE Ipomoea hederacea; 250 g/ha): 50%
pest or weed control at 250 g/ha ([3]; 250 g/ha): 60%
pest or weed control at 250 g/ha (SINAR Sinapis arvensis; 250 g/ha): 70%
pest or weed control at 250 g/ha ([4]; 250 g/ha): 60%
pest or weed control at 250 g/ha ([5]; 250 g/ha): 80%
pest or weed control at 250 g/ha (CHEAL Chenopodium album; 250 g/ha): 100%
pest or weed control at 250 g/ha (SIDSP Sida spinosa; 250 g/ha): 20%
